The values below come from publication PMC7616191 (Molecular pharmacology, 2018).

Each structure is given as a SMILES string.

The assay has as its target T1, human muscarinic acetylcholine M1 receptor (hM1 mAChR) (Homo sapiens, UniProt P11229).
T1 sequence (P11229 1-460): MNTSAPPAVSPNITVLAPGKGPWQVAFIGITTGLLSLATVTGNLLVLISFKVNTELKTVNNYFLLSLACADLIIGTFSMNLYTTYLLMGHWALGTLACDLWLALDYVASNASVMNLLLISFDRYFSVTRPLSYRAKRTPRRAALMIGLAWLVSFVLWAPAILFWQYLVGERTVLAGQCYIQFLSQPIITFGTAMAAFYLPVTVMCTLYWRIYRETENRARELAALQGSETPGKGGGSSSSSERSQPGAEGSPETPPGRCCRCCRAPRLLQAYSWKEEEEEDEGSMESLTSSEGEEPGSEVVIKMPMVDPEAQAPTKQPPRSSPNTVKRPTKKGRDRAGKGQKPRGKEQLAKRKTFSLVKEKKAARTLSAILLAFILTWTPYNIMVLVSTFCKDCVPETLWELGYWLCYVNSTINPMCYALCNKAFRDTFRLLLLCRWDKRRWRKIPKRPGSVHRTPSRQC
The assay can be described thus: IP1 accumulation. Type of assay: cell-based. Conditions: vehicle-pretreated control; orthosteric agonist; […]°C, […] h, pH […].

As to `C[N+](C)(C)CC#CCN1CCCC1=O` [Oxo-M], the “pEC50^a” value is 6.08 ± 0.13.
